Measured values: ChEMBL document CHEMBL1152983, “Substitution of the arginine/leucine residues in apidaecin Ib with peptoid residues: effect on antimicrobial activity, cellular uptake, and proteolytic degradation” (J Med Chem, 2009)
In brackets after ≈: the same amount, converted by molar mass. Starred links: 1 amine or outer side, 2 acyl side, 3 side chain; linkers in the order of their positions; H or OH if unused. Non-standard residues stand in square brackets, D forms with d. Residues, ends and D or L forms follow the SMILES beside them. Gly(N-(CH2)3-guanidino) = N=C(N)NCCCNCC(=O)O; X1 = N=C(N)NCCN(CC(=O)[*:2])[*:1]; NhArg = N=C(N)NCCCCNCC(=O)O

Key:
[1] = Toxicity in human erythrocytes assessed as hemolytic activity at 300 uM after 60 mins; assay type: cell-based, Erythrocyte; details: read-out: Activity
[2] = test system: Salmonella enterica subsp. enterica; experiment: Antimicrobial activity against Salmonella enteritidis PD1 after 18 hrs by broth microdilution susceptibility test; assay type: functional, Salmonella enterica subsp. enterica serovar Enteritidis; details: PD1, 18 h
[3] = Membrane permeabilization in eukaryotic membrane model consisting of single unilamellar vesicle of L-alpha-phosphatidylcholine-cholesterol assessed as 5(6)-carboxyfluorescein release at high peptide-to-lipid ratio after 20 mins by fluorescence assay; assay type: ADME, cell membranes
[4] = test system: Salmonella enterica subsp. enterica; experiment: Antimicrobial activity against Salmonella Typhimurium ATCC 14028 after 18 hrs by broth microdilution susceptibility test; assay type: functional, Salmonella enterica subsp. enterica serovar Typhimurium; details: ATCC 14028, 18 h
Escherichia coli [5] = experiment: Antimicrobial activity against Escherichia coli ML35 after 18 hrs by broth microdilution susceptibility test; assay type: functional; details: ML35, 18 h
Klebsiella pneumoniae = experiment: Antimicrobial activity against Klebsiella pneumoniae 22 after 18 hrs by broth microdilution susceptibility test; assay type: functional; details: Klebsiella pneumoniae, 22, 18 h
Escherichia coli [6] = experiment: Antimicrobial activity against Escherichia coli ATCC 25922 after 18 hrs by broth microdilution susceptibility test; assay type: functional; details: ATCC 25922, 18 h
[7] = test system: Salmonella enterica subsp. enterica; experiment: Antimicrobial activity against Salmonella enteritidis D5 after 18 hrs by broth microdilution susceptibility test; assay type: functional, Salmonella enterica subsp. enterica serovar Enteritidis; details: D5, 18 h
[8] = Toxicity in human erythrocytes assessed as hemolytic activity at 30 uM after 60 mins; assay type: cell-based, Erythrocyte; details: read-out: Activity
[9] = Membrane permeabilization in eukaryotic membrane model consisting of single unilamellar vesicle of L-alpha-phosphatidylcholine-cholesterol assessed as 5(6)-carboxyfluorescein release at high peptide-to-lipid ratio after 50 mins by fluorescence assay; assay type: ADME, cell membranes
Escherichia coli [10] = experiment: Antimicrobial activity against Escherichia coli O18K1H7 after 18 hrs by broth microdilution susceptibility test; assay type: functional; details: O18K1H7, 18 h
[11] = Chemical stability assessed as compound degradation at 2 mg/mL within 30 mins by HPLC and ESI-MS analysis in presence of trypsin; assay type: physicochemical; details: isolated protein, 0.5 h

MIC [2] [µM]	Activity [3]	MIC [4] [µM]	MIC (Escherichia coli [5]) [µM]	MIC (Klebsiella pneumoniae) [µM]	MIC (Escherichia coli [6]) [µM]	MIC [7] [µM]	Activity [9]	MIC (Escherichia coli [10]) [µM]	Stability [11]	SMILES	hemolysis at 1 h, 300 µM [1] [%]	hemolysis at 1 h, 30 µM [8] [%]
64 (≈ 130 µg/mL)	Not Active	32 (≈ 64.8 µg/mL)	16 (≈ 32.4 µg/mL)	> 128	32 (≈ 64.8 µg/mL)	64 (≈ 130 µg/mL)	Not Active	32 (≈ 64.8 µg/mL)		CC[C@H](C)[C@H](NC(=O)[C@H](Cc1ccc(O)cc1)NC(=O)[C@@H](NC(=O)[C@@H]1CCCN1C(=O)[C@H](CCCNC(=N)N)NC(=O)[C@H](CC(N)=O)NC(=O)[C@H](CC(N)=O)NC(=O)CN)C(C)C)C(=O)N1CCC[C@H]1C(=O)N[C@@H](CCC(N)=O)C(=O)N1CCC[C@H]1C(=O)N(CCCCNC(=N)N)CC(=O)N1CCC[C@H]1C(=O)N[C@@H](Cc1cnc[nH]1)C(=O)N1CCC[C@H]1C(=O)N[C@@H](CCCNC(=N)N)C(=O)N[C@@H](CC(C)C)C(=O)O (H-GNNRPVYIPQP[NhArg]PHPRL-OH)	1.31	≤ 2
64 (≈ 134 µg/mL)	Not Active	32 (≈ 67 µg/mL)	16 (≈ 33.5 µg/mL)	> 128	32 (≈ 67 µg/mL)	64 (≈ 134 µg/mL)	Not Active	32 (≈ 67 µg/mL)		CC[C@H](C)[C@H](NC(=O)[C@H](Cc1ccc(O)cc1)NC(=O)[C@@H](NC(=O)[C@@H]1CCCN1C(=O)[C@H](CCCNC(=N)N)NC(=O)[C@H](CC(N)=O)NC(=O)[C@H](CC(N)=O)NC(=O)CN)C(C)C)C(=O)N1CCC[C@H]1C(=O)N[C@@H](CCC(N)=O)C(=O)N1CCC[C@H]1C(=O)N(CCNC(=N)N)CC(=O)N1CCC[C@H]1C(=O)N1CCC[C@H]1C(=O)N[C@@H](Cc1cnc[nH]1)C(=O)N1CCC[C@H]1C(=O)N[C@@H](CCCNC(=N)N)C(=O)N[C@@H](CC(C)C)C(=O)O (H-GNNRPVYIPQP[X1]PPHPRL-OH)	0.87	≤ 2
	Not Active	> 128		> 128	> 128		Not Active			CC[C@H](C)[C@H](NC(=O)[C@H](Cc1ccc(O)cc1)NC(=O)[C@@H](NC(=O)[C@H](CCCNC(=N)N)NC(=O)[C@H](CC(N)=O)NC(=O)[C@H](CC(N)=O)NC(=O)CN)C(C)C)C(=O)N1CCC[C@H]1C(=O)N[C@@H](CCC(N)=O)C(=O)N1CCC[C@H]1C(=O)N[C@@H](CCCNC(=N)N)C(=O)N1CCC[C@H]1C(=O)N[C@@H](Cc1cnc[nH]1)C(=O)N1CCC[C@H]1C(=O)N[C@@H](CCCNC(=N)N)C(=O)N[C@@H](CC(C)C)C(=O)O (H-GNNRVYIPQPRPHPRL-OH)		≤ 2
32 (≈ 67.5 µg/mL)	Not Active	16 (≈ 33.7 µg/mL)	16 (≈ 33.7 µg/mL)	> 128	16 (≈ 33.7 µg/mL)	32 (≈ 67.5 µg/mL)	Not Active	16 (≈ 33.7 µg/mL)		CC[C@H](C)[C@H](NC(=O)[C@H](Cc1ccc(O)cc1)NC(=O)[C@@H](NC(=O)[C@@H]1CCCN1C(=O)CN(CCCNC(=N)N)C(=O)[C@H](CC(N)=O)NC(=O)[C@H](CC(N)=O)NC(=O)CN)C(C)C)C(=O)N1CCC[C@H]1C(=O)N[C@@H](CCC(N)=O)C(=O)N1CCC[C@H]1C(=O)N[C@@H](CCCNC(=N)N)C(=O)N1CCC[C@H]1C(=O)N1CCC[C@H]1C(=O)N[C@@H](Cc1cnc[nH]1)C(=O)N1CCC[C@H]1C(=O)N[C@@H](CCCNC(=N)N)C(=O)N[C@@H](CC(C)C)C(=O)O (H-GNN[Gly(N-(CH2)3-guanidino)]PVYIPQPRPPHPRL-OH)	0.06	≤ 2
								> 128		CC[C@H](C)[C@H](NC(=O)[C@H](Cc1ccc(O)cc1)NC(=O)[C@@H](NC(=O)[C@@H]1CCCN1C(=O)CN(CCCNC(=N)N)C(=O)[C@H](CC(N)=O)NC(=O)[C@H](CC(N)=O)NC(=O)CN)C(C)C)C(=O)N1CCC[C@H]1C(=O)N[C@@H](CCC(N)=O)C(=O)N1CCC[C@H]1C(=O)N(CCCNC(=N)N)CC(=O)N1CCC[C@H]1C(=O)N1CCC[C@H]1C(=O)N[C@@H](Cc1cnc[nH]1)C(=O)N1CCC[C@H]1C(=O)N(CCCNC(=N)N)CC(=O)N[C@@H](CC(C)C)C(=O)O (H-GNN[Gly(N-(CH2)3-guanidino)]PVYIPQP[Gly(N-(CH2)3-guanidino)]PPHP[Gly(N-(CH2)3-guanidino)]L-OH)	0.06	
8 (≈ 16.9 µg/mL)	Not Active	4 (≈ 8.43 µg/mL)	8 (≈ 16.9 µg/mL)	64 (≈ 135 µg/mL)	8 (≈ 16.9 µg/mL)	8 (≈ 16.9 µg/mL)	Not Active	8 (≈ 16.9 µg/mL)	Unstable	CC[C@H](C)[C@H](NC(=O)[C@H](Cc1ccc(O)cc1)NC(=O)[C@@H](NC(=O)[C@@H]1CCCN1C(=O)[C@H](CCCNC(=N)N)NC(=O)[C@H](CC(N)=O)NC(=O)[C@H](CC(N)=O)NC(=O)CN)C(C)C)C(=O)N1CCC[C@H]1C(=O)N[C@@H](CCC(N)=O)C(=O)N1CCC[C@H]1C(=O)N[C@@H](CCCNC(=N)N)C(=O)N1CCC[C@H]1C(=O)N1CCC[C@H]1C(=O)N[C@@H](Cc1cnc[nH]1)C(=O)N1CCC[C@H]1C(=O)N[C@@H](CCCNC(=N)N)C(=O)N[C@@H](CC(C)C)C(=O)O [APIDAECIN]	1.19	≤ 2
